Measurements taken from patent US10894945B2, “Methods for improving proliferation and stemness of limbal stem cells” (CATHOLIC UNIVERSITY INDUSTRY ACADEMIC COOPERATION FOUNDATION, priority 2016, dated 2021).

Columns and labels:
human limbal explant = experiment: Limbal explant outgrowth culture: outgrowth proliferation, area, cell yield, cell density; assay type: cell-based; conditions: for stained outgrowth area / cell yields: 10 μM IWP2 or 3 μM CHIR99021; for stained outgrowth area: Commassie blue R 250 staining, compared with control (FIG. 2a, 2b); for cell yields: trypan blue, hemocytometer, compared with normal control (FIG. 2c); for outgrowth proliferation rates of the explant: 10 μM IWP2 or 3 μM CHIR99021 in medium, phase contrast microscope, day 4 and 8, compared with control (FIG. 1); for Cell count, Mean: Explant culture, Table 1
Procedure: The corneal limbal tissue satisfying the above-described conditions was splitted into […] using a surgical instrument on a horizontal sterile-air-flow hood, and the conjunctival edge of each quarter was immersed shortly in 1% trypan blue (Sigma, USA) to stain conjunctival stroma, and all remnants of conjunctiva were carefully removed using conjunctival scissors. Afterward, a sclera tissue was trimmed away, and then each limbal strip was prepared after being cut to a thickness of 0.5 mm using a sharp blade. First, a 0.4-μm pore polyester membrane insert (Costar, NY) with a diameter of 25 mm was put into a 6-well plate, and pre-equilibrated overnight cultured in a supplemented hormonal epithelial medium (SHEM). The SHEM was composed of 950 ml of Dulbecco's modified minimal essential medium (DMEM)/F-12 medium in which DMEM and Ham F12 are mixed in a ratio of 1:1, 50 ml of fetal bovine serum (FBS), 5 ng of a human recombinant epidermal growth factor (EGF), 28 mg of phosphoethanolamine, lx insulin-transferrin-selenium (ITS, Gibco), and 1× penicillin-streptomycin (Gibco). Afterward, the limbal tissue cut into 8 sections with a length of 4 mm according to the method described in Example 1-1 was put on a polyester membrane to dispose an epithelial part face-up, and cultured under an air-liquid interface condition. After 72 hours of culturing, the presence of an encircling island of outgrowth cells were confirmed, and then the medium was replaced with a fresh medium that just covered a surface of the explant, every 72 hours. Here, the cells were cultured with 10 μM of the Wnt inhibitor (IWP2) or 3 μM of the GSK3 inhibitor (CHIR99021), and then experiments that will be described below were performed. To identify effects of the Wnt/β-catenin signaling on the limbal explant outgrowth cultures, cells were cultured by adding 10 μM of the Wnt inhibitor IWP2 or 3 μM of the Wnt signaling agonist CHIR99021 as a GSK3 inhibitor to a medium under the culture conditions for a human limbal explant cultures according to the methods described in Examples 1-1 and 1-2, and explant outgrowth proliferation was observed using a phase contrast microscope on day 4 and 8. […] In addition, cells were harvested by treating the limbal explant cultures with trypsin, stained with a 0.4% trypan blue solution, and cell yields were measured using a hemocytometer and then cell densities were quantitatively analyzed.

[1] = system: limbal stem cells (LSCs) in limbal explant outgrowth cultures; experiment: Flow cytometry of JC1 low side population in limbal explant outgrowth cultures; assay type: cell-based, human; conditions: for % JC1^low, Mean: Explant culture, Table 1; for JC1 exclusion cell cohort (JC1^low) / percentage in a lower left quadrant (LLQ): limbal explant culture; for JC1 exclusion cell cohort (JC1^low): 10 μM IWP2 or 3 μM CHIR99021 (FIG. 3); for percentage in a lower left quadrant (LLQ): 10 μM IWP2 or 3 μM CHIR99021, FSC/SSC, stem/precursor somatic cells (FIG. 3)
Procedure: First, a 0.4-μm pore polyester membrane insert (Costar, NY) with a diameter of 25 mm was put into a 6-well plate, and pre-equilibrated overnight cultured in a supplemented hormonal epithelial medium (SHEM). The SHEM was composed of 950 ml of Dulbecco's modified minimal essential medium (DMEM)/F-12 medium in which DMEM and Ham F12 are mixed in a ratio of 1:1, 50 ml of fetal bovine serum (FBS), 5 ng of a human recombinant epidermal growth factor (EGF), 28 mg of phosphoethanolamine, lx insulin-transferrin-selenium (ITS, Gibco), and 1× penicillin-streptomycin (Gibco). […] After 72 hours of culturing, the presence of an encircling island of outgrowth cells were confirmed, and then the medium was replaced with a fresh medium that just covered a surface of the explant, every 72 hours. Here, the cells were cultured with 10 μM of the Wnt inhibitor (IWP2) or 3 μM of the GSK3 inhibitor (CHIR99021), and then experiments that will be described below were performed. In order to determine a relative cell size and ABCG2 efflux activity, cells from limal explant outgrowth cultures were harvested by treatment with trypsin, the collected cells were seeded in 6-well plates at a cell density of 2×10^4/well, treated with 250 nM JC1 dye and incubated for 45 minutes. Afterward, the cells were detached again by trypsin treatment and diluted with FACS buffer to perform FACS analysis. JC1 is a dye binding to mitochondria in cells, efflux of the JC1 dye from cells in a side population strongly expressing ATP-binding cassette sub-family G member 2 (ABCG2) results in inhibition of mitochondria staining. Therefore, flow cytometry was performed on the cells treated with the JC1 dye using a FACS Calibur (BD Biosciences) at an emission wavelength of 531(green)/585(orange), and the side population (JC1^low) that was not stained with JC1 was measured.

[2] = system: LSC markers p63α and ABCG2, differentiation marker Krt3; experiment: Western blot of LSC markers and differentiation marker in limbal explant outgrowth cells; assay type: cell-based, human; conditions: for expression of the differentiation marker Krt3: western blot (FIG. 4); for protein expression of LSC marker ABCG2 / protein expression of LSC marker p63α: western blot, compared with control (FIG. 4)
Procedure: First, a 0.4-μm pore polyester membrane insert (Costar, NY) with a diameter of 25 mm was put into a 6-well plate, and pre-equilibrated overnight cultured in a supplemented hormonal epithelial medium (SHEM). The SHEM was composed of 950 ml of Dulbecco's modified minimal essential medium (DMEM)/F-12 medium in which DMEM and Ham F12 are mixed in a ratio of 1:1, 50 ml of fetal bovine serum (FBS), 5 ng of a human recombinant epidermal growth factor (EGF), 28 mg of phosphoethanolamine, lx insulin-transferrin-selenium (ITS, Gibco), and 1× penicillin-streptomycin (Gibco). Afterward, the limbal tissue cut into 8 sections with a length of 4 mm according to the method described in Example 1-1 was put on a polyester membrane to dispose an epithelial part face-up, and cultured under an air-liquid interface condition. After 72 hours of culturing, the presence of an encircling island of outgrowth cells were confirmed, and then the medium was replaced with a fresh medium that just covered a surface of the explant, every 72 hours. Here, the cells were cultured with 10 μM of the Wnt inhibitor (IWP2) or 3 μM of the GSK3 inhibitor (CHIR99021), and then experiments that will be described below were performed. Limbal explant outgrowth cells were washed with PBS, and lysed with a lysis buffer containing phosphatase inhibitor cocktail 2 (Sigma-Aldrich) and protease inhibitor cocktail (Roche Diagnostics). A lysate was boiled with a sample-loading buffer for 10 minutes and then centrifuged, resulting in isolation of a supernatant containing proteins in the cells, and a protein concentration was quantified using a BCA Protein Assay kit (Thermo Fisher Scientific, Rockford, Ill.). Afterward, equal amounts of protein in cell lysates were separated by 10% SDS-polyacrylamide gel electrophoresis (SDS-PAGE) under reducing conditions and electro-transferred to a PVDF membrane (Millipore, Billerica, Mass.). Afterward, The membrane was blocked with 5% skim milk in PBS containing 0.1% Tween 20, incubated at 4° C. for 18 h with primary mouse monoclonal antibodies (Abs) recognizing, β-catenin (BD Biosciences), ABCG2 (Abcam), Krt3 (Abcam) or a rabbit polyclonal antibody recognizing p63α (Abcam). After the washes, the membrane was incubated with a horseradish peroxidase-binding anti-mouse or anti-rabbit secondary antibody at room temperature for 1 hour. The membrane incubating with the secondary antibody was washed with 0.1% Tween 20-added PBS three times, treated with an ECL solution (Amersham Biosciences, Sweden) as a chemiluminescence reagent and developed, thereby analyzing an expression level of a protein to be observed. Also, to correct protein levels of the samples, a mouse monoclonal anti-β-actin primary antibody reacted with the membrane, and subsequent procedures were the same as described above. To identify effects of the Wnt/β-catenin signaling on LSC differentiation during the limbal explant culture, expression levels of the LSC markers p63α and ABCG2, and the differentiation marker Krt3 protein in the explant outgrowth cells were detected by western blot analysis according to the method described in Example 1-5.

[3] = system: limbal explant outgrowth cells; experiment: Colony forming efficiency assay of cells harvested from explant outgrowth cultures; assay type: cell-based, human; conditions: cells from treated limbal explant outgrowth; cultured up to day 14; compared with control (FIG. 5)
Procedure: First, a 0.4-μm pore polyester membrane insert (Costar, NY) with a diameter of 25 mm was put into a 6-well plate, and pre-equilibrated overnight cultured in a supplemented hormonal epithelial medium (SHEM). The SHEM was composed of 950 ml of Dulbecco's modified minimal essential medium (DMEM)/F-12 medium in which DMEM and Ham F12 are mixed in a ratio of 1:1, 50 ml of fetal bovine serum (FBS), 5 ng of a human recombinant epidermal growth factor (EGF), 28 mg of phosphoethanolamine, lx insulin-transferrin-selenium (ITS, Gibco), and 1× penicillin-streptomycin (Gibco). […] After 72 hours of culturing, the presence of an encircling island of outgrowth cells were confirmed, and then the medium was replaced with a fresh medium that just covered a surface of the explant, every 72 hours. Here, the cells were cultured with 10 μM of the Wnt inhibitor (IWP2) or 3 μM of the GSK3 inhibitor (CHIR99021), and then experiments that will be described below were performed.

[4] = system: human limbal epithelial cells; experiment: Flow cytometry of JC1 low ratio in isolated limbal epithelial cell (single cell) culture; assay type: cell-based; conditions: Table 1
Procedure: (§1) The limbal tissue divided according to the method described in Example 1-1 was treated with 2 mg/ml Dispase II (Roche, Indianapolis, Ind.) diluted with keratinocyte medium (KSFM; Invitrogen, Carlsbad, Calif.) and overnight cultured at 4° C. Afterward, a limbal epithelium layer was gently sloughed off from its stromal base under the dissecting microscope, the epithelium layer was treated with TrypLE (GIBCO, Denmark) and cultured for 10 minutes, and then triturated with a pipette to generate a single cell suspension. These cells were seeded into a 25T flask coated with human type I collagen (PureCol^R, Biomatrix, SanDiego, Calif.) to be dispensed at a density of 2×10^5 cells/flask, and cultured in Cnt50 medium (Cell-N-Tec, Bern, Switzerland) complemented with bovine pituitary extract for up to 2 weeks.
In order to determine a relative cell size and ABCG2 efflux activity, cells from limal explant outgrowth cultures were harvested by treatment with trypsin, the collected cells were seeded in 6-well plates at a cell density of 2×10^4/well, treated with 250 nM JC1 dye and incubated for 45 minutes. […] Therefore, flow cytometry was performed on the cells treated with the JC1 dye using a FACS Calibur (BD Biosciences) at an emission wavelength of 531(green)/585(orange), and the side population (JC1^low) that was not stained with JC1 was measured. […]

[5] = system: human limbal epithelial cells; experiment: Viable cell count / cell yield in isolated limbal epithelial cell (single cell) culture; assay type: cell-based; conditions: for Cell count, Mean: Epithelial cells (single cell culture), Table 1
Procedure: as §1
According to Examples 2 to 4, it was identified that, in the limbal explant culture, the Wnt/β-catenin signaling is involved in the stimulation of explant outgrowth proliferation per unit area, and sternness improvement and differentiation inhibition of LSCs. Accordingly, an experiment was conducted to confirm whether the same effects as described above would be obtained, even when limbal epithelial cells were dissociated according to the method described in Example 1-3, and cultured as single cells. To this end, the limbal explant outgrowth cells according to the method described in Example 1-2 and the cells proliferated from the limbal epithelial cells according to the method described in Example 1-3 were harvested, and each type of cells was subjected to FACS analysis to measure a JC1^low ratio.
Based on the results of Example 6-1, cells cultured by the same method as described above were recovered to measure viable cell counts, yields of the limbal epithelial cells were measured.

SMILES	stained outgrowth area (human limbal explant)	cell yields (human limbal explant)	outgrowth proliferation rates of the explant (human limbal explant)	Cell count, Mean (human limbal explant)	% JC1^low, Mean [1] [%]	JC1 exclusion cell cohort (JC1^low) [1] [%]	percentage in a lower left quadrant (LLQ) [1] [%]	expression of the differentiation marker Krt3 [2]	protein expression of LSC marker ABCG2 [2]	protein expression of LSC marker p63α [2]	colony forming efficiency (CFE) [3]	% JC1^low, Mean [4] [%]	Cell count, Mean [5]	cell yields (viable cell counts) ([5]; single cell culture of limbal tissues (FIG. 6))	cell density (human limbal explant; 10 μM IWP2, cells/mm^2, compared with control and CHIR99021 group (FIG. 2d))
Cc1c[nH]c(-c2cnc(NCCNc3ccc(C#N)cn3)nc2-c2ccc(Cl)cc2Cl)n1 [CHIR99021]	smaller area	significantly decreased	sequentially decreased	0.8 1 × 10^5	6.4	10.9±1.3	50.7±10.1	increased	remarkably decreased	remarkably decreased	remarkably lower CFE	23.9	7.0 1 × 10^5	very low	
Cc1ccc2nc(NC(=O)CSc3nc4c(c(=O)n3-c3ccccc3)SCC4)sc2c1 [IWP2, N-(6-Methyl-2-benzothiazolyl)-2-[(3,4,6,7-tetrahydro-4-oxo-3-phenylthieno[3,2-d]pyrimidin-2-yl)thio]-acetamide]	subsequently increased	no difference in cell yields	sequentially decreased	4.3 1 × 10^5	27.9	29.6±2.6	72.8±1.9	barely expressed	remarkably increased	remarkably increased	remarkably higher CFE	9.8	4.1 1 × 10^5		highest cell density
